# Measurements taken from patent publication US7473682B2, “Angiogenic peptides and uses thereof” (Ramot at Tel Aviv University Ltd., priority 2003, dated 2009).
# Experiments:
# [1] = test system: ears of nude mice and Balb/C mice; assay: In vivo angiogenesis in a mouse-ear model; conditions: for Number of blood vessels: 5 days after inoculation
# Experimental: In Wivo angiogenesis in a mouse-ear model—Ear angiogenesis studies were a modification of an approach described previously (Pettersson, 2000). […] Contralateral ears were injected only with PBS. […] Two days after peptide inoculation, angiogenic effect of peptides could be observed.
# Histological sections—Histological sections of the mouse-ears injected with the angiogenic peptides were performed by fixing tissues in 4% buffered formalin. Sections were embedded in paraffin blocks sectioned in 4 μm thick layers and stained with hematoxolin-eosin.
# mouse ischemic hind limb [2] = assay: Mouse ischemic hind limb model, physiological observations (ladder climbing); format: in vivo; design: key: 1 = walk and climb ... 4 = walk with difficulty, cannot climb; conditions: mean score of 10 mice, 10 μg
# Experimental: (§1) Mouse ischemic hind limb model—Ischemia was created in the mouse left hind limb by ligation of the femoral artery. The right hind limb served as control. A day after the operation each of the peptides was injected into one site close to the ligation and one site distal to the ligation. Each mouse was treated with each of the peptides in a total amount of 10 μg.
# Physiological observations—Ischemic mice were evaluated for their ability to climb a ladder on day 1, 4, 7, and 10-post operation. The scoring system was as follows: 1—walk and climb; 2—walk and climb with some difficulty, 3—walk and cannot climb the ladder; 4—walk with difficulties and cannot climb the ladder.
# mouse ischemic hind limb [3] = assay: Mouse ischemic hind limb model, blood perfusion (Laser Doppler Imager); format: in vivo; conditions: 14 and 19 days following peptide injection, 10 μg
# Experimental: as §1
# Blood perfusion in ischemic mice—The percent of blood perfusion was measured using a Laser Doppler Imager (PeriMed, Sweden) at 14 and 19 days after peptides injections. The average percent perfusion of each limb was computed and expressed as the ischemic (left)/control (right) blood perfusion ratio.
substance,measurement,setting,value
"FGF: positive control, the angiogenic molecule FGF [reference compound]",Number of blood vessels,[1]; 3 ng/ear,11
same,Peptide/PBS = ratio between the No. of blood vessels in the peptide-injected ear and in the PBS-injected ear,"[1]; mouse ears, contralateral ear PBS",2.08
same,Physiological score (ability to climb a ladder) Day 1,"mouse ischemic hind limb [2]; 1 = walk and climb ... 4 = walk with difficulties and cannot climb, day 1 post operation",2.57
same,Physiological score (ability to climb a ladder) Day 4,"mouse ischemic hind limb [2]; scale 1-4, day 4 post operation",2
same,Physiological score (ability to climb a ladder) Day 7,"mouse ischemic hind limb [2]; scale 1-4, day 7 post operation",1
same,Physiological score (ability to climb a ladder) Day 10,"mouse ischemic hind limb [2]; scale 1-4, day 10 post operation",1
same,"The blood perfusion ratio (in percentages) of the ischemic vs. control limbs, Mean",mouse ischemic hind limb [3],93.438 percentages
VEGF [reference compound],Number of blood vessels,[1]; 10 ng/ear,17
same,Number of blood vessels in the ears of injected mice (photographs),"[1]; VEGF, 100 ng/mouse ear (FIG. 19a)",increased number of blood vessels
